Like-named read-outs stand apart in the source and are kept apart here.
Legend:
[1] = biological target: T1, recombinant human dopamine D2L receptors (Homo sapiens, UniProt P14416); test: Dopamine Binding Assay; settings: HEK-D2L cell membranes, 150 pM [3H]-spiperone, Cheng and Prusoff
T1 construct: expressed in transfected cells; host or cells: HEK-293 (HEK-D2L), membrane homogenates
Method in brief: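 Competition binding on HEK-293 membranes stably expressing human D2L (~5 μg protein) with 150 pM [3H]-spiperone, 1.5 h at 22 °C in 50 mM Tris pH 7.4, 1 mM EDTA, 6 mM MgCl2. Filtration read-out; non-specific binding defined with 2 μM (+)butaclamol, Ki by Cheng-Prusoff.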

[2] = biological target: T2, human serotonin transporters (Homo sapiens, UniProt P31645); test: Serotonin Transporter Binding Assay; settings: HEK-hSERT cell membranes, 1 nM [3H]-citalopram, Cheng and Prusoff
T2 construct: expressed in transfected cells; host or cells: HEK-293 (HEK-hSERT), membrane homogenates
Method in brief: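 Membranes from HEK-293 cells stably expressing hSERT were incubated 1 hr at 25° C with 1 nM [^3H]-citalopram and test compound in 50 mM Tris pH 7.4, 120 mM NaCl, 5 mM KCl, then filtered. Non-specific binding was defined by 10 μM fluoxetine. IC50 came from displacement curves, and Ki by Cheng–Prusoff.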

T1 sequence (P14416 whole entry): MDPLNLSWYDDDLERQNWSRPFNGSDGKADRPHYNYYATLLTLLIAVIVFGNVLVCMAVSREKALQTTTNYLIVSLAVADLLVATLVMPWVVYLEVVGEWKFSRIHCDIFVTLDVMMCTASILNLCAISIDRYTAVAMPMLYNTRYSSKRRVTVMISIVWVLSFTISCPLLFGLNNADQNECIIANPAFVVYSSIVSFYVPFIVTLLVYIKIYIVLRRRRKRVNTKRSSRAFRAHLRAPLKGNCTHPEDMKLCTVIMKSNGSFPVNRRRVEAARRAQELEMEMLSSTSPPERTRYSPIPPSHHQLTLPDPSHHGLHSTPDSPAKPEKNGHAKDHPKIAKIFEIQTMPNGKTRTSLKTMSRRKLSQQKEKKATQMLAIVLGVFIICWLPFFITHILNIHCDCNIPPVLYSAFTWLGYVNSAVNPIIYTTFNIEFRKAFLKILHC
T2 sequence (P31645 whole entry): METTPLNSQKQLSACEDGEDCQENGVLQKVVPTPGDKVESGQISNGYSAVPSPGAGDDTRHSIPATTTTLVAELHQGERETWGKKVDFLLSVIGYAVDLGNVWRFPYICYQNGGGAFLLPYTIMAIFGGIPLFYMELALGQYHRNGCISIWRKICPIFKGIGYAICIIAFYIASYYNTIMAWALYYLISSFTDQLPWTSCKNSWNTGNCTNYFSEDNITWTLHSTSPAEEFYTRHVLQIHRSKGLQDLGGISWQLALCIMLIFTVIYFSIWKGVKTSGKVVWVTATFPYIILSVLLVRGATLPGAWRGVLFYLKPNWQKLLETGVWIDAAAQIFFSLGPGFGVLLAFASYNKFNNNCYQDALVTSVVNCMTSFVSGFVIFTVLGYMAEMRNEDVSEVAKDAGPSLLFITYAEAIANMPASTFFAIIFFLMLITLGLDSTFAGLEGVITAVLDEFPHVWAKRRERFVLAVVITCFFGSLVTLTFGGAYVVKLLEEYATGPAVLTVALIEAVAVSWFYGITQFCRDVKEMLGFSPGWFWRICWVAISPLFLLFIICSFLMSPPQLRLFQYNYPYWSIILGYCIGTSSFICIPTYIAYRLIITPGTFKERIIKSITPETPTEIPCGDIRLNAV

Compound	melting point	Ki [1] [nM]	Ki ([2]; read-out: SERT Ki) [nM]	Ki ([2]; SERT Ki (nM)) [nM]
CN(C)CC1CC1Cc1c[nH]c2ccc(F)cc12 (racemic) [Example 147, [2-(5-Fluoro-1H-indol-3-ylmethyl)-cyclopropylmethyl]-dimethylamine]	239 to 241 °C	100 to 1000	10 to 100	
CN(C)C[C@H]1C[C@@H]1c1c[nH]c2ccc(F)cc12 [Example 4, (1S,2S)-trans-1-(N,N-dimethylaminomethyl)-2-[5-fluoroindol-3-yl]-cyclopropane]	88 to 90 °C	> 1000		< 1
CN(C)CC1CC1c1c[nH]c2ccc(F)cc12 (single isomer, unassigned) [Example 2, Trans-1-(N,N-dimethylaminomethyl)-2-[5-fluoroindol-3-yl]cyclopropane]	199 to 200 °C (dec.)	100 to 1000	1 to 10	
CN(C)CC1CC1c1c[nH]c2ccc(C#N)cc12 (single isomer, unassigned) [Example 1, Trans-2-[5-Cyanoindol-3-yl]-1-(N,N-dimethylaminomethyl)cyclopropane]	120 to 121 °C	> 1000		< 1
CN(Cc1ccccc1)CC1CC1c1c[nH]c2ccc(F)cc12 (stereo not drawn) [Example 186, cis-1-(N-benzyl-N-methylaminomethyl)-2-[5-fluoroindol-3-yl]-cyclopropane]		> 1000	1 to 10	
CC1CCN(CC2CC2c2c[nH]c3ccc(C#N)cc23)CC1 (stereo not drawn) [Example 33, trans-2-[5-Cyanoindol-3-yl]-1-(4-methyl-piperidin-1-yl-methyl)-cyclopropane]		100 to 1000	10 to 100	
Fc1cccc(CNCC2CC2c2c[nH]c3ccc(F)cc23)c1 (stereo not drawn) [Example 54, trans-1-[N-(3-Fluorobenzyl)aminomethyl]2-[5-fluoroindol-3-yl]-cyclopropane]		100 to 1000	10 to 100	

— patent publication US6822100B2 (Bristol-Myers Squibb Company, priority 2001, dated 2004)
